The values that follow come from ChEMBL document CHEMBL2169741, “Analysis of the discriminative inhibition of mammalian digestive lipases by 3-phenyl substituted 1,3,4-oxadiazol-2(3H)-ones” (Eur J Med Chem, 2012).

As usually defined, the inhibition is the percentage by which the read-out fell short of the control.

For assay [1], the target named is T1, Pancreatic lipase-related protein 2 (Homo sapiens) (UniProt P54317).
T1 sequence (whole entry): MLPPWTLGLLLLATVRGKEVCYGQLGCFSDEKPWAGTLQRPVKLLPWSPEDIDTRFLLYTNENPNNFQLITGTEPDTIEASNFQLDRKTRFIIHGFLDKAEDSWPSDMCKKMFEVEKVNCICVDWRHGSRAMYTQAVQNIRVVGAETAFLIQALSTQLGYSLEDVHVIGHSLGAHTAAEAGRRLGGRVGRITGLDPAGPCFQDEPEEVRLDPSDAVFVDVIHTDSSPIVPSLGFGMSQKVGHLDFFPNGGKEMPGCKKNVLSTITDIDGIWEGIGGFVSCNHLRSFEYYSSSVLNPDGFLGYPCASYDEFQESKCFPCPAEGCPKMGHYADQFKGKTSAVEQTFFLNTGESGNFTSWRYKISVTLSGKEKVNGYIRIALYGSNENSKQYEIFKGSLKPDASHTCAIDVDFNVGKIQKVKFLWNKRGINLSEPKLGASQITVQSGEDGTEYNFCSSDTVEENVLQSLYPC
Description: Inhibition of recombinant HPLRP2 expressed in Pichia pastoris assessed as half inactivation time at 5 molar excess in presence of NaTDC.

For assay [2], the target named is T2, Pancreatic triacylglycerol lipase (Sus scrofa) (UniProt P00591).
T2 sequence (whole entry): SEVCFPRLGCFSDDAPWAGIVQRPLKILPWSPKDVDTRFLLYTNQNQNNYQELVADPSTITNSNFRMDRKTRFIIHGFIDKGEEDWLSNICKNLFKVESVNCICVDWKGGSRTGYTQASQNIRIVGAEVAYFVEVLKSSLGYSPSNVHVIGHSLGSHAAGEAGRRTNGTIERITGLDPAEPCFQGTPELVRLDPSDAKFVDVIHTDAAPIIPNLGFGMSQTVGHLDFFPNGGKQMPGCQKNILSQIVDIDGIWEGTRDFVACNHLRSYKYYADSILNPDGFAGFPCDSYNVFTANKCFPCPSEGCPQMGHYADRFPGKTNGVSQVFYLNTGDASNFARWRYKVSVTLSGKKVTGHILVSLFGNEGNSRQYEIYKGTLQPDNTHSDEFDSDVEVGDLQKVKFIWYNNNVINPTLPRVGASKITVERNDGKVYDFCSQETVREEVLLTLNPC
Put plainly: Inhibition of PPL after 30 mins in presence of NaTDC.

The target of assay [3] is T3, Bile salt-activated lipase (Homo sapiens) (UniProt P19835).
T3 sequence (whole entry): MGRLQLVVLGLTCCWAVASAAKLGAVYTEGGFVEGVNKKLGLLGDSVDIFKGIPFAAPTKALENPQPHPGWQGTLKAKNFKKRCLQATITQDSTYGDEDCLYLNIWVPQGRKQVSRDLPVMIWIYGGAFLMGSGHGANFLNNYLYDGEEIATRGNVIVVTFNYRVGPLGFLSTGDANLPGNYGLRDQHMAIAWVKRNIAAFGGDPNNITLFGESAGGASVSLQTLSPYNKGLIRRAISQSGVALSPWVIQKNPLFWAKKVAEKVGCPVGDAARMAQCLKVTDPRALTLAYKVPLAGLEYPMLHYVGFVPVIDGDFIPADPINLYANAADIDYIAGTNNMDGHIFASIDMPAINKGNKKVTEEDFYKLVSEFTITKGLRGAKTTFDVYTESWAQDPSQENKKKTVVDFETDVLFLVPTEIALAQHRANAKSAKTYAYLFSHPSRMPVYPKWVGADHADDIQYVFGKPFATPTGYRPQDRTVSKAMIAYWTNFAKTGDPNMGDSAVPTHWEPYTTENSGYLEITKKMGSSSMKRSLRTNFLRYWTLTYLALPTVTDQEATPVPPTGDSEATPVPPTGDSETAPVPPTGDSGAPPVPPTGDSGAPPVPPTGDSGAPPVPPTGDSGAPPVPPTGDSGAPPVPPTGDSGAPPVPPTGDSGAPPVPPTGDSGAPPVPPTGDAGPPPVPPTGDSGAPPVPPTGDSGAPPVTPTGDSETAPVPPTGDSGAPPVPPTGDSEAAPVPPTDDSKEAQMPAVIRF
Put plainly: Inhibition of human pancreatic CEH at 20 molar excess after 30 mins.

For assay [4], the target named is T2, Pancreatic triacylglycerol lipase (Sus scrofa). Description: Inhibition of PPL at 100 molar excess after 30 mins in presence of NaTDC.
For assay [5], the target named is T3, Bile salt-activated lipase (Homo sapiens). Put plainly: Inhibition of human pancreatic CEH after 30 mins.
In assay [6] the target is T1, Pancreatic lipase-related protein 2 (Homo sapiens). Put plainly: Inhibition of recombinant HPLRP2 expressed in Pichia pastoris after 30 mins in presence of NaTDC.
The target of assay [7] is T4, Gastric triacylglycerol lipase (Canis lupus familiaris) (UniProt P80035).
T4 sequence (whole entry): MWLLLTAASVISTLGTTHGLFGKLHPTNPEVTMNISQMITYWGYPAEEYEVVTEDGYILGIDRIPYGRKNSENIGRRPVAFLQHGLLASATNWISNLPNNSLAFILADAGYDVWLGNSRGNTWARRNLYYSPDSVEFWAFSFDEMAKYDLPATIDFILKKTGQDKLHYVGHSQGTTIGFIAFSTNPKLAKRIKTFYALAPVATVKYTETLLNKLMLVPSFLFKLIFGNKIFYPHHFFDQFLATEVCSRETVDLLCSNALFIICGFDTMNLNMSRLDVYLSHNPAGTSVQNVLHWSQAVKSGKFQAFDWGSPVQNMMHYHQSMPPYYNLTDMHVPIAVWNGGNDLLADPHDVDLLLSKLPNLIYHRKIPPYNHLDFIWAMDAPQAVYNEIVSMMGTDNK
Description: Inhibition of recombinant DGL expressed in transgenic maize assessed as hydrolysis of trybutyrin emulsion at 10 to 40 molar excess after 30 mins in absence of NaTDC.

Assay [8] addresses T5, Pancreatic lipase-related protein 2 (Cavia porcellus) (UniProt P81139).
T5 sequence (whole entry): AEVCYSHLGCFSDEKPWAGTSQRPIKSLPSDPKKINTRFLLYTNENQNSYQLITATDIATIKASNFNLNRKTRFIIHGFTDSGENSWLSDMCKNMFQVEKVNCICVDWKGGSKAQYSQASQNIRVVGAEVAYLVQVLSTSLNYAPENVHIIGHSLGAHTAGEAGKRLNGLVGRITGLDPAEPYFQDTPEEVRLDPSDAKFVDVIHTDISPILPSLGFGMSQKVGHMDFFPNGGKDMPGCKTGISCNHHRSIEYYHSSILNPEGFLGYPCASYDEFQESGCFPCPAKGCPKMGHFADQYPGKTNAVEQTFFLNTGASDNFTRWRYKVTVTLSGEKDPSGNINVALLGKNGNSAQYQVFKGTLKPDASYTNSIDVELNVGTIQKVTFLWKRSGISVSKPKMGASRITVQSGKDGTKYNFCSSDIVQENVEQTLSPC
Description: Inhibition of recombinant GPLRP2 expressed in Aspergillus oryzae after 30 mins in presence of NaTDC.

Assay [9] addresses T1, Pancreatic lipase-related protein 2 (Homo sapiens). Description: Inhibition of recombinant HPLRP2 expressed in Pichia pastoris assessed as residual activity at 40 molar excess after 30 mins by mass spectrophotometric analysis in presence of NaTDC.
Assay [10] concerns the target T4, Gastric triacylglycerol lipase (Canis lupus familiaris). Description: Inhibition of recombinant DGL expressed in transgenic maize assessed as residual activity at 40 molar excess after 30 mins by mass spectrophotometric analysis in presence of NaTDC.
Assay [11] deals with T3, Bile salt-activated lipase (Homo sapiens). Put plainly: Inhibition of human pancreatic CEH assessed as residual activity at 40 molar excess after 30 mins by mass spectrophotometric analysis.

Molecules are shown by their SMILES. Activity calls are given as the source filed them. The rule behind the calls is not given here.

For the compound `CCCCCCCCCCC[C@@H](C[C@@H]1OC(=O)[C@H]1CCCCCC)OC(=O)[C@H](CC(C)C)NC=O`, in assay [1], the T1/2 came to 0.55 min. For the same compound, the XI50 in assay [2] stood at 2.76 molar excess; in assay [5], 0.78 molar excess; in assay [6], 0.77 molar excess. For the same compound, the inhibition turned out to be 83.6% in assay [3] and 85.5% in assay [4].
Consider `COc1nn(-c2ccc(Oc3ccccc3)cc2)c(=O)o1`, for which, in assay [1], the T1/2 is 2.06 min. Moreover, the XI50 was 57.6 molar excess in assay [2], 0.93 molar excess in assay [5], more than 40 molar excess in assay [8] and 1.04 molar excess in assay [6]. The results for the inhibition in [7], in [3] and in assay [4] were 65%, 78.6% and 72.9%, respectively.
`COc1nn(-c2ccccc2)c(=O)o1`: in [1], the T1/2 is 14.6 min. The XI50 is more than 400 molar excess in assay [2], 0.77 molar excess in [5], 0.74 molar excess in [8] and 2.27 molar excess in assay [6]. The inhibition in assay [3] was found to be 81.3%; in assay [4], 10.7%.
Take `COc1nn(-c2cccc(Oc3ccccc3)c2)c(=O)o1`: the T1/2 in [1] worked out at 0.78 min. For the same compound, the XI50 was 26.5 molar excess in assay [2], 1.48 molar excess in [5], 0.77 molar excess in [8] and 0.62 molar excess in assay [6]. The values for the inhibition in [7], in assay [3] and in assay [4] were 65%, 84.7% and 85.1%, respectively. The inhibition entry in [9], in assay [10] and in assay [11] was “Active” each time.
